Columns and labels:
[1] = test system: neonatal rat ventricular cardiomyocytes (NVCM); test: Protection against DAU-induced cytotoxicity (LDH release) in NVCM; assay type: cell-based; design: key to Suppl.Fig.3 DAU-induced cytotoxicity (LDH release) in NVCM, mean of independent replicates / LDH release (DAU-induced cytotoxicity), mean of independent replicates: % of total LDH activity; details: for minimal effective concentration: Rattus norvegicus, Cardiomyocyte, protection against DAU 1.2 µM, n=4, read-out: LEC = lowest effective concentration; for minimal effective concentration / LDH release (protection against DAU), mean of independent replicates: NVCM; for LDH release (protection against DAU), mean of independent replicates: Suppl.Fig.6b
Experimental: (§1) The protective effects of the BNS-22 and newly prepared compounds were evaluated using primary cultures of neonatal rat cardiomyocytes isolated in house as previously described. Hearts isolated from 1- to 3-day-old Wistar rats were minced in buffer (1.2 mM MgSO4 · 7H2O, 116 mM NaCl, 5.3 mM KCl, 1.13 mM NaH2PO4 · H2O, 20 mM 4-(2-hydroxyethyl)-1-piperazine ethanesulfonic acid (HEPES), glucose 1 mg/mL) on ice, then serially digested (20 min, six repetitions) at 37 °C with collagenase type II (60 U/mL, Gibco). After 2 h pre-plating in a 150 mm Petri dish per approximately 20 hearts to minimize non-myocyte contamination, cells were plated in 24-well gelatin-coated plates at a density of 400,000 cells per well. Cells were cultured at 37 °C and 5% CO2 in Dulbecco’s modified Eagle medium (DMEM)/ F12 culture medium supplemented with 10% horse serum, 5% fetal bovine serum (FBS), 20 mM sodium pyruvate, 50 U/mL penicillin, and 50 μg/mL streptomycin. Freshly isolated cells were left for 40 h to attach and form a culture of spontaneously beating cardiomyocytes, then the medium was changed to DMEM/F12 medium supplemented with 5% fetal bovine serum, 20 mM sodium pyruvate, 50 U/mL penicillin, and 50 μg/mL streptomycin. For the experiments, the medium was changed to serum- and pyruvate-free DMEM/F12 with 50 U/mL penicillin and 50 μg/mL streptomycin. Cardiomyocytes were pretreated with BNS-22 or new compounds for 3 h and then coincubated with DAU (1.2 µM) for another 3 h. After the DAU treatment period, the culture medium was exchanged for the drug-free DMEM/F12 with 50 U/mL penicillin and 50 μg/mL streptomycin for the 48 h follow-up. Experiments to determine the inherent toxicity of each compound studied follow the same schedule, only no DAU was added. Subsequently, the culture medium sample was taken from each well for evaluation of lactate dehydrogenase (LDH) activity. The total LDH activity of each sample for normalization was measured after 1 h of incubation at 37 °C in lysis buffer (0.1 M potassium phosphate, 1% Triton X-100, 1 mM dithiothreitol (DTT), 2 mM EDTA, pH 7.8, 15 min in RT). All samples were immediately analyzed in Tris HCl buffer (pH 8.9) containing 35 mM lactic acid and 5 mM NAD^+. The rate of NAD^+ reduction was monitored spectrophotometrically at 340 nm for 2 min. The slope of the linear region was calculated, and the results were expressed as a percentage of the total LDH. Each presented data point was obtained from distinct sample.

[2] = molecular target: T1, recombinant human TOP2A (Homo sapiens, UniProt P11388); test: In vitro ATPase activity of TOP2A (coupled assay); assay type: biochemical; details: n=3
T1 construct: Using recombinant full-length human TOP2A and TOP2B enzymes; YFP (N, cleaved yes); made in house; host or cells: HEK293F
T1 sequence (P11388 whole entry): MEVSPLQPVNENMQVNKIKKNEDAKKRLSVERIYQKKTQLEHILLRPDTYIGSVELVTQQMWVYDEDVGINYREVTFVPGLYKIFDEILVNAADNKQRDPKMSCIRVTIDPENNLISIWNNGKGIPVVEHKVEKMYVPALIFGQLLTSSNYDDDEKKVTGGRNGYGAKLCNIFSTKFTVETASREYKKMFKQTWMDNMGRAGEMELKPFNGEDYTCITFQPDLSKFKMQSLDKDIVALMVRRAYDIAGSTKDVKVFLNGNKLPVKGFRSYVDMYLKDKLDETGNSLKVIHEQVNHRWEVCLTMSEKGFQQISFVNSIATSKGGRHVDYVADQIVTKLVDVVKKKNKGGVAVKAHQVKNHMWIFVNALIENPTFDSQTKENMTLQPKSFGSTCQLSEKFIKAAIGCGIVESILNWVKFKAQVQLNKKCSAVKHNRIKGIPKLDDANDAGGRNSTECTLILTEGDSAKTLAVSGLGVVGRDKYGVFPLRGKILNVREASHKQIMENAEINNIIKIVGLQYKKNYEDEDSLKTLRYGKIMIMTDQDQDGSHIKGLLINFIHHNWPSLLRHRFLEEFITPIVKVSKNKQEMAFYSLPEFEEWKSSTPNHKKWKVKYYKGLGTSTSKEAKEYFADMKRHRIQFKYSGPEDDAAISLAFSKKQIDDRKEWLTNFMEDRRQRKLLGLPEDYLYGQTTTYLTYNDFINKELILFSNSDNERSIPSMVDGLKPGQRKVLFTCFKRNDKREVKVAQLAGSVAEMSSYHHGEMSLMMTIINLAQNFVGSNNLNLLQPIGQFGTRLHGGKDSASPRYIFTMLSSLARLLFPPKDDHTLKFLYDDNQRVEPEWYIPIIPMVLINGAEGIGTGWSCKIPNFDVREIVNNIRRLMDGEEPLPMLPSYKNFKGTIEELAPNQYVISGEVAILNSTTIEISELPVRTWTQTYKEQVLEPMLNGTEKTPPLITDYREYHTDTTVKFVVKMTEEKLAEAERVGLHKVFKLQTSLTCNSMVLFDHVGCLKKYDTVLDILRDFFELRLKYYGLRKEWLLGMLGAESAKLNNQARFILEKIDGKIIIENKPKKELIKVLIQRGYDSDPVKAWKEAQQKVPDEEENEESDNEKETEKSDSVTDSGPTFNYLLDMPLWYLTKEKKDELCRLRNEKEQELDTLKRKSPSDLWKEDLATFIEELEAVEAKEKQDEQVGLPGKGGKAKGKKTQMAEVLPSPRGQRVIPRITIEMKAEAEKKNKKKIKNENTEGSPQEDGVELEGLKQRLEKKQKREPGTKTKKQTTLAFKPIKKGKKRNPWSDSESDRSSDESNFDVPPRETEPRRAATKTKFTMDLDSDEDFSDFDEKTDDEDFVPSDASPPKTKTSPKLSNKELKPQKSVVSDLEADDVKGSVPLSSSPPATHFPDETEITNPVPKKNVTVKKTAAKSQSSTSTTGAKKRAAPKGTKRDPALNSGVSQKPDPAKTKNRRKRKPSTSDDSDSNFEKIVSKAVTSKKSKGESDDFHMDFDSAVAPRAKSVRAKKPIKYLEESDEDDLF
Experimental: (§2) Topoisomerase proteins were diluted to 500 nM in storage buffer containing 20 mM HEPES pH 7.5, 500 mM NaCl, 0.5 mM TCEP, 25% glycerol, and 0.2 mg/mL BSA prior to use. A coupled assay was used to measure TOP2-catalyzed ATP hydrolysis in vitro[37] in Costar 96-well plates (Corning Incorporated). […] Reaction plates were pre-warmed to 30 °C for 5 min and ATP was added last to initiate the reaction. The reaction plate was placed in a CLARIOstarPlus plate reader (BMG Labtech) to measure NADH fluorescence at 30 °C every 30 s over 120 cycles using a 340-60 excitation filter and a 480-100 emission filter. Background fluorescence signals calculated from wells containing no ATP were subtracted from each measurement. The slope of NADH fluorescence decay in each well was calculated using the MARS software (BMG Labtech) and reaction wells that lacked topoisomerase inhibitor to account for photobleaching of NADH fluorescence served as background subtraction. Each presented data point was obtained from distinct sample. Values were normalized to untreated controls and plotted as a function of inhibitor concentration to determine IC50 values using Prism 9 (GraphPad).

[3] = test system: neonatal rat ventricular cardiomyocytes (NVCM); test: Inherent toxicity (LDH release) in NVCM; assay type: cell-based; design: key to LDH release (inherent toxicity), mean of independent replicates: % of total LDH activity; details: NVCM; for LTC = lowest toxic concentration: compound alone, n=4
Experimental: as §1

[4] = molecular target: T2, recombinant human TOP2B (Homo sapiens, UniProt Q02880); test: In vitro ATPase activity of TOP2B (coupled assay); assay type: biochemical; details: for SRbeta (SRTOP2B), TOP2 ATPase activity: TOP2A IC50 divided by TOP2B IC50; for IC50: n=3
T2 construct: Using recombinant full-length human TOP2A and TOP2B enzymes; YFP (N, cleaved yes); made in house; host or cells: HEK293F
T2 sequence (Q02880 1-1621 isoform Q02880-2): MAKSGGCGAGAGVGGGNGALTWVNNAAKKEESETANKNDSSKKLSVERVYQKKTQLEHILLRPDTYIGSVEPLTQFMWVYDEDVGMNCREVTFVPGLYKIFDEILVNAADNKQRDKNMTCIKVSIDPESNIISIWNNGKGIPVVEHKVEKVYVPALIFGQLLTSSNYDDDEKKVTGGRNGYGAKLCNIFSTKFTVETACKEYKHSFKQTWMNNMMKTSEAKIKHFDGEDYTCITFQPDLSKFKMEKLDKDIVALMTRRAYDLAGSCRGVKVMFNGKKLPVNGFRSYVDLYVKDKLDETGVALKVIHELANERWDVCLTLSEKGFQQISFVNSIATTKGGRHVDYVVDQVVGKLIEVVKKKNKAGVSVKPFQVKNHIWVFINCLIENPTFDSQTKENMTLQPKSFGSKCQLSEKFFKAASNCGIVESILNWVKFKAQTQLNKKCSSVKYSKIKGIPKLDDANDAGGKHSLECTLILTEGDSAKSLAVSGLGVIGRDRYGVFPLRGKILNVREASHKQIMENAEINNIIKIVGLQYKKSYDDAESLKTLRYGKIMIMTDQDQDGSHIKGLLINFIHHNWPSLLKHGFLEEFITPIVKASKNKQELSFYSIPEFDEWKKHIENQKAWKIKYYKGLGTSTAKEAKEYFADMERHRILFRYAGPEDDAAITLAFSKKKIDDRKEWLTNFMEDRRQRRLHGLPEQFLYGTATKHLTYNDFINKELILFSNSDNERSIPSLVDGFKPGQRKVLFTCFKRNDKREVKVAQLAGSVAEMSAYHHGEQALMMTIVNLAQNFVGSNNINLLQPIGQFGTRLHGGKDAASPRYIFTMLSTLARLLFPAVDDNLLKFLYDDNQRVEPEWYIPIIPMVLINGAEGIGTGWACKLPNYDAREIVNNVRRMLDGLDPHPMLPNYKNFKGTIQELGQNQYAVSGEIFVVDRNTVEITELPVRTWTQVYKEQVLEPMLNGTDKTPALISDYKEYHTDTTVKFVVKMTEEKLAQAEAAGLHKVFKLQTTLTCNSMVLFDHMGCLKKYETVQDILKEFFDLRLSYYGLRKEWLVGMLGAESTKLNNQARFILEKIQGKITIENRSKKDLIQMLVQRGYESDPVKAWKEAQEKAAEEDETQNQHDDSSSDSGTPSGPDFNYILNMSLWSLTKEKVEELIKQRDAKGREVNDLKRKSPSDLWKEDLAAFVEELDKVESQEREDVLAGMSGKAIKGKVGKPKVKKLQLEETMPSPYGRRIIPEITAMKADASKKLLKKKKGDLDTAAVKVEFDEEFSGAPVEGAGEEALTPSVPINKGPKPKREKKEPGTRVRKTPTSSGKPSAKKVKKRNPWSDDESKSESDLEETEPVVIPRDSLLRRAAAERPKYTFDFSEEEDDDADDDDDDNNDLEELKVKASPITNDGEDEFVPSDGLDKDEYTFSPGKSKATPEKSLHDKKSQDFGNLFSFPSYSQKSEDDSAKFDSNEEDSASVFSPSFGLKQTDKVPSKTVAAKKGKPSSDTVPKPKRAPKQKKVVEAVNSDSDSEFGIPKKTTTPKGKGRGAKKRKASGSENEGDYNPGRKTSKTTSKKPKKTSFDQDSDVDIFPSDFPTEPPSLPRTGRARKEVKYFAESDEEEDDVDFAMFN
Experimental: as §2

[5] = compound alone 0.1 µM, Suppl.Fig.4
[6] = compound alone 1 µM, Suppl.Fig.4
[7] = compound alone 10 µM, Suppl.Fig.4
[8] = compound alone 30 µM, Suppl.Fig.4
[9] = compound alone 0.01 µM, Suppl.Fig.6c
[10] = compound alone 0.1 µM, Suppl.Fig.6c
[11] = compound alone 1 µM, Suppl.Fig.6c
[12] = compound alone 10 µM, Suppl.Fig.6c
[13] = compound alone 30 µM, Suppl.Fig.6c
[14] = compound alone 100 µM, Suppl.Fig.6c

Structure (SMILES)	minimal effective concentration [1] [µM]	Suppl.Fig.3 DAU-induced cytotoxicity (LDH release) in NVCM, mean of independent replicates ([1]; compound 0.1 µM + DAU 1.2 µM)	Suppl.Fig.3 DAU-induced cytotoxicity (LDH release) in NVCM, mean of independent replicates ([1]; compound 1 µM + DAU 1.2 µM)	Suppl.Fig.3 DAU-induced cytotoxicity (LDH release) in NVCM, mean of independent replicates ([1]; compound 10 µM + DAU 1.2 µM)	IC50 [2] [nM]	LTC = lowest toxic concentration [3] [µM]	LDH release (inherent toxicity), mean of independent replicates [3, 5]	LDH release (inherent toxicity), mean of independent replicates [3, 6]	LDH release (inherent toxicity), mean of independent replicates [3, 7]	SRbeta (SRTOP2B), TOP2 ATPase activity [4]	IC50 [4] [nM]	Suppl.Fig.3 DAU-induced cytotoxicity (LDH release) in NVCM, mean of independent replicates ([1]; compound 30 µM + DAU 1.2 µM)	LDH release (inherent toxicity), mean of independent replicates [3, 8]	LDH release (protection against DAU), mean of independent replicates ([1]; compound 0.01 µM + DAU 1.2 µM)	LDH release (protection against DAU), mean of independent replicates ([1]; compound 0.1 µM + DAU 1.2 µM)	LDH release (protection against DAU), mean of independent replicates ([1]; compound 1 µM + DAU 1.2 µM)	LDH release (protection against DAU), mean of independent replicates ([1]; compound 10 µM + DAU 1.2 µM)	LDH release (protection against DAU), mean of independent replicates ([1]; compound 30 µM + DAU 1.2 µM)	LDH release (protection against DAU), mean of independent replicates ([1]; compound 100 µM + DAU 1.2 µM)	LDH release (inherent toxicity), mean of independent replicates [3, 9]	also measured
CCCc1cc(=O)oc2c(C(=O)N3CCCc4ccccc43)c(OC)ccc12 [3c]	1	33.8238	29.3632	23.4291	1270	> 10	16.0204	16.3627	16.4282	1.6	780										Suppl.Fig.3 DAU-induced cytotoxicity (LDH release) in NVCM, mean of independent replicates ([1]; compound 3 µM + DAU 1.2 µM): 26.6827; LDH release (inherent toxicity), mean of independent replicates ([3]; compound alone 3 µM, Suppl.Fig.4): 15.3033
CCCOc1ccc2c(CCC)cc(=O)oc2c1C(=O)N1CCCc2ccccc21 [4c]	0.1	37.3488	27.8991	34.5307	1870		16.7326	16.4897	23.8379	2.2	850	56.7644	34.5318								Suppl.Fig.3 DAU-induced cytotoxicity (LDH release) in NVCM, mean of independent replicates ([1]; compound 0.01 µM + DAU 1.2 µM): 45.7304; Suppl.Fig.3 DAU-induced cytotoxicity (LDH release) in NVCM, mean of independent replicates ([1]; compound 100 µM + DAU 1.2 µM): 78.8192; LDH release (inherent toxicity), mean of independent replicates ([3]; compound alone 0.01 µM, Suppl.Fig.4): 13.5244; LDH release (inherent toxicity), mean of independent replicates ([3]; compound alone 100 µM, Suppl.Fig.4): 48.1102
CCc1cc(=O)oc2c(C(=O)N3CCCc4ccccc43)c(OCCO)ccc12 [5b]	10	53.5677	49.2444	40.137	1420	> 30	13.7703	14.0098	14.5134	1.0	1460	35.8495	14.3714								
CCCc1cc(=O)oc2c(C(=O)N3CCCc4ccccc43)c(OCCN(C)C)ccc12 [compound 7]	10													44.2016	45.7696	39.8955	31.2866	33.8072	37.6314	12.5189	LDH release (inherent toxicity), mean of independent replicates [3, 10]: 12.4578; LDH release (inherent toxicity), mean of independent replicates [3, 11]: 12.8607; LDH release (inherent toxicity), mean of independent replicates [3, 12]: 14.2154; LDH release (inherent toxicity), mean of independent replicates [3, 13]: 18.2491; LDH release (inherent toxicity), mean of independent replicates [3, 14]: 27.6932
CCCc1cc(=O)oc2c(C(=O)N3CCCc4ccccc43)c(OCCCN3CCCCC3)ccc12 [compound 8]	1					30								40.886	39.8568	34.126	30.5731	32.7612	39.9555	14.7015	LDH release (inherent toxicity), mean of independent replicates [3, 10]: 13.9677; LDH release (inherent toxicity), mean of independent replicates [3, 11]: 14.1413; LDH release (inherent toxicity), mean of independent replicates [3, 12]: 16.8035; LDH release (inherent toxicity), mean of independent replicates [3, 13]: 21.145; LDH release (inherent toxicity), mean of independent replicates [3, 14]: 29.4802
